# Reference: US20080070852A1, “3-Beta-D-Ribofuranosylthiazolo[ 4,5-D] Pyridimine Nucleosides and Uses Thereof” (priority 2004, published 2008)
# Where “and” joins values, the source holds several entries; their conditions need not be identical. Equal values may be shown once. Entries after “also recorded” stand apart in the source; their conditions may differ. Where a name gives a salt, the structure may show the parent alone.
# Columns and labels:
# [1] = system: interferon alpha (Mu-IFN-α); assay: Murine interferon alpha in plasma of dosed mice; format: in vivo; settings: for Plasma Concentration of Interferon Alpha (Mu-IFN-α), Mean / Plasma Concentration of Interferon Alpha (Mu-IFN-α), Individual Value: single oral 73.0 mg/kg dose
# Text: The normal mouse provides a useful system for the assessment of the degree to which the inventions described herein provide material improvement in the oral delivery of 1 (isatoribine). Not only can one measure the plasma concentrations of isatoribine arising from oral administration of the said prodrug(s) but also the extensive immunological research conducted in the mouse has provided reagents suitable for measuring the levels of interferon alpha, a cytokine of interest reflecting one of the desired biologic activities of isatoribine.
# Table 1 records the results of an assay for murine interferon alpha in the plasma of mice that were dosed two times with isatoribine, formulated in bicarbonate, at a level of 50 mg/kg by the oral route.
# Table 2 records the results of assays for murine interferon alpha in the plasma of mice that first were dosed with bicarbonate and then four hours later were dosed orally with isatoribine, formulated in bicarbonate, at a level of 50 mg/kg. Interferon was reported in the plasma from four mice, including two that had received the bicarbonate vehicle dose.
# Table 3 records the results of assays for murine interferon alpha in the plasma of mice that were dosed orally with val-isatoribine, dissolved in bicarbonate, at a dose that is equivalent to 50/mg/kg of isatoribine on a molar basis. […] Interferon was detected in all mice assayed at a given time point, indicating the reliability of the effect following val-isatoribine administration.
# In other experiments, plasma levels of isatoribine and interferon alpha were measured in mice that were dosed with isatoribine by the intravenous route, and these levels were compared to the levels of isatoribine and interferon alpha arising after oral administration of val-isatoribine. […] Thus, oral val-isatoribine provides levels of isatoribine and interferon that are approximately 50% of those observed after intravenous administration of isatoribine itself.
# [2] = Systemic exposure to isatoribine after oral administration to beagle dogs; format: in vivo; settings: both 10 and 50 mg/kg
# Description: The effect of a prodrug (val-isatoribine, 3) on the systemic exposure to isatoribine (1) after oral administration to beagle dogs was investigated. Isatoribine was prepared in sodium bicarbonate solution.
# Four male and four female adult beagle dogs weighing between 15 to 27 kg and approximately 1-2 years old were used at the beginning of the study. The animals were divided into 2 groups of 2 males and 2 females each. The test material was administered by gavage on Days 1 and 8, allowing a 7-day washout period between administrations. Blood samples (2 mL) were collected from each animal at predose, 15, 30 minutes, 1, 2, 3, 4, 6, 8 and 10 hours into lithium heparin tubes after each dosing. The plasma was frozen at −70° C. until analysis. The plasma was analyzed for isatoribine by an HPLC-MS/MS assay.
# beagle dogs = assay: Toxicology studies in beagle dogs (GI tolerance); settings: dogs; for Emesis or loose stool / GI lesions or irritation: Oral Val-Isatoribine
# Description: Formal toxicology studies of intravenously administered isatoribine and orally administered isatoribine and val-isatoribine were conducted in beagle dogs.
# In each case the compound was administered as a solution, by gavage or by intravenous infusion. Multiple parameters were assessed, as is customary in a toxicology study. In the studies providing higher potential exposure to isatoribine, the plasma concentration of isatoribine was assessed by a LC/MS method.
# in vitro = in vitro ADME; settings: human, Caco-2
# Text: (§1) See, e.g., Hilgers, A. R. et al., Pharm. Res., 20(8), 1149-55 (August 2003).
# Caco-2 cells = assay: in vitro; format: in vitro ADME; settings: human
# Text: as §1
# [3] = oral dosing, studies of Tables 1-3
# [4] = isatoribine equivalent applied dose 8.1 mg/kg
# [5] = isatoribine equivalent applied dose 16 mg/kg
# [6] = isatoribine equivalent applied dose 32 mg/kg
# [7] = isatoribine equivalent applied dose 64 mg/kg
smiles,measurement,setting,value
"Nc1nc(NC2CCCC2)c2sc(=O)n([C@@H]3O[C@H](CO)[C@@H](O)[C@H]3O)c2n1 [Compound 22, 5-Amino-7-cyclopentylamino-3-β-D-ribofuranosylthiazolo[4,5-d]pyrimidin-2-one]",melting point,,> 108 °C (dec.)
"CC(C)[C@H](N)C(=O)OC[C@H]1O[C@@H](n2c(=O)sc3c(O)nc(N)nc32)[C@H](O)[C@@H]1O [Compound 3, 5-Amino-3-(5′-O-L-valinyl-β-D-ribofuranosyl)thiazolo[4,5-d]pyrimidine-2,7-dione Dihydrochloride]",increase of magnitude of average and peak interferon response versus isatoribine,"[1]; mice, oral",twofold
same,level of interferon relative to intravenous isatoribine,"[1]; mice, oral, 50 mg/kg isatoribine molar equivalent, vs intravenous isatoribine 25 mg/kg, FIG. 1",approximately 50%
same,interferon in plasma,"[1]; mice, oral, equivalent to 50 mg/kg isatoribine","readily measurable at 1.0 hour, 1.5 hours, and 2.0 hours after dosing"
same,"Plasma Concentration of Interferon Alpha (Mu-IFN-α), Mean","[1]; mice, 0.00 h",0.00 pg/mL
same,"Plasma Concentration of Interferon Alpha (Mu-IFN-α), Individual Value","[1]; mice, 0.00 h, listed as Val-Isatoribine, Dihydrochloride, 73 mg/kg",BQL (Below the Quantifiable Limit < 12.5 pg/mL); also recorded: BQL^125 pg/mL; also recorded: BQL^25 pg/mL
same,"Plasma Concentration of Interferon Alpha (Mu-IFN-α), Individual Value","[1]; mice, 0.25 h",BQL (Below the Quantifiable Limit < 12.5 pg/mL)
same,"Plasma Concentration of Interferon Alpha (Mu-IFN-α), Mean","[1]; mice, 0.25 h",0.00 pg/mL
same,"Plasma Concentration of Interferon Alpha (Mu-IFN-α), Mean","[1]; mice, 0.50 h",0.00 pg/mL
same,"Plasma Concentration of Interferon Alpha (Mu-IFN-α), Individual Value","[1]; mice, 0.50 h, listed as Val-Isatoribine, Dihydrochloride, 73 mg/kg",BQL^25 pg/mL; also recorded: BQL (Below the Quantifiable Limit < 12.5 pg/mL)
same,"Plasma Concentration of Interferon Alpha (Mu-IFN-α), Mean","[1]; mice, 0.75 h",0.00 pg/mL
same,"Plasma Concentration of Interferon Alpha (Mu-IFN-α), Individual Value","[1]; mice, 0.75 h, listed as Val-Isatoribine, Dihydrochloride, 73 mg/kg",BQL (Below the Quantifiable Limit < 12.5 pg/mL); also recorded: BQL^25 pg/mL
same,"Plasma Concentration of Interferon Alpha (Mu-IFN-α), Mean","[1]; mice, 1.00 h",129.1 pg/mL
same,"Plasma Concentration of Interferon Alpha (Mu-IFN-α), Individual Value","[1]; mice, 1.00 h, listed as Val-Isatoribine, Dihydrochloride, 73 mg/kg",173.2 pg/mL and 125.1 pg/mL and 89.0 pg/mL
same,"Plasma Concentration of Interferon Alpha (Mu-IFN-α), Mean","[1]; mice, 1.50 h",214.5 pg/mL
same,"Plasma Concentration of Interferon Alpha (Mu-IFN-α), Individual Value","[1]; mice, 1.50 h, listed as Val-Isatoribine, Dihydrochloride, 73 mg/kg",202.9 pg/mL and 145.9 pg/mL and 294.8 pg/mL
same,"Plasma Concentration of Interferon Alpha (Mu-IFN-α), Mean","[1]; mice, 2.00 h",108.5 pg/mL
same,"Plasma Concentration of Interferon Alpha (Mu-IFN-α), Individual Value","[1]; mice, 2.00 h, listed as Val-Isatoribine, Dihydrochloride, 73 mg/kg",49.2 pg/mL and 137.9 pg/mL and 138.3 pg/mL
same,"Plasma Concentration of Interferon Alpha (Mu-IFN-α), Individual Value","[1]; mice, 3.00 h",BQL^25 pg/mL
same,"Plasma Concentration of Interferon Alpha (Mu-IFN-α), Mean","[1]; mice, 3.00 h",0.00 pg/mL
same,"Plasma Concentration of Interferon Alpha (Mu-IFN-α), Mean","[1]; mice, 4.00 h",9.20 pg/mL
same,"Plasma Concentration of Interferon Alpha (Mu-IFN-α), Individual Value","[1]; mice, 4.00 h, listed as Val-Isatoribine, Dihydrochloride, 73 mg/kg",BQL^25 pg/mL and 27.6 pg/mL and BQL (Below the Quantifiable Limit < 12.5 pg/mL)
same,"Plasma Concentration of Interferon Alpha (Mu-IFN-α), Mean","[1]; mice, 5.00 h",0.00 pg/mL
same,"Plasma Concentration of Interferon Alpha (Mu-IFN-α), Individual Value","[1]; mice, 5.00 h, listed as Val-Isatoribine, Dihydrochloride, 73 mg/kg",BQL (Below the Quantifiable Limit < 12.5 pg/mL); also recorded: BQL^25 pg/mL
same,mice with interferon detected in plasma,[1]; [3],10 of the 30
same,proportion of mice exhibiting an interferon response,[1]; [3],30%
same,maximum concentrations of isatoribine compared to isatoribine itself,[2],at least doubled
same,GI lesions,beagle dogs; oral,No GI lesions were found
same,Emesis or loose stool,beagle dogs; [4],Neg.
same,GI lesions or irritation,beagle dogs; [4],Neg.
same,Emesis or loose stool,beagle dogs; [5],Neg.
same,GI lesions or irritation,beagle dogs; [5],Neg.
same,Emesis or loose stool,beagle dogs; [6],Neg.
same,GI lesions or irritation,beagle dogs; [6],Neg.
same,Emesis or loose stool,beagle dogs; [7],Neg.
same,GI lesions or irritation,beagle dogs; [7],Neg.
same,GI lesions or irritation,beagle dogs; isatoribine equivalent applied dose 130 mg/kg,Neg.
same,GI lesions or irritation,beagle dogs; isatoribine equivalent applied dose 260 mg/kg,Neg.
same,GI lesions or irritation,beagle dogs; isatoribine equivalent applied dose 390 mg/kg,Neg.
"CC(=O)OC[C@H]1O[C@@H](n2c(=O)sc3cnc(N)nc32)[C@H](OC(C)=O)[C@@H]1OC(C)=O [Compound 78, 5-Amino-3-(2′,3′,5′-tri-O-acetyl-β-D-ribofuranosyl)-3H-thiazolo[4,5-d]pyrimidin-2-one]",Papp A→B,in vitro,60 ×10⁻⁶ cm/s
same,Caco2 transport compared with 79,Caco-2 cells,significantly improved transport over 79
same,melting point,,121 to 123 °C
"Nc1nc(N2CCCC2)c2sc(=O)n([C@@H]3O[C@H](CO)[C@@H](O)[C@H]3O)c2n1 [Compound 23, 5-Amino-7-pyrrolidino-3-β-D-ribofuranosylthiazolo[4,5-d]pyrimidin-2-one]",melting point,,> 112.4 °C (dec.)
"CN[C@H](C(=O)OC[C@H]1O[C@@H](n2c(=O)sc3c(O)nc(N)nc32)[C@H](O)[C@@H]1O)C(C)C (as salt: hydrochloride) [Compound 11, 5-Amino-3-(5′-O-[α-L-N-methylvalinyl]-β-D-ribofuranosyl)thiazolo[4,5-d]pyrimidine-2,7-dione Hydrochloride]",melting point,,> 180 °C (dec.)
"COc1nc(N)nc2c1sc(=O)n2[C@@H]1O[C@H](CO)[C@@H](O)[C@H]1O [Compound 14, 5-Amino-3-β-D-ribofuranosyl-7-methoxy-thiazolo[4,5-d]pyrimidin-2-one]",melting point,,> 160 °C (dec.)
"CC(=O)O[C@@H]1[C@H](OC(C)=O)[C@@H](CO)O[C@H]1n1c(=O)sc2cnc(N)nc21 [Compound 89, 5-Amino-3-(2′,3′-di-O-acetyl-β-D-ribofuranosyl)-3H-thiazolo[4,5-d]pyrimidin-2-one]",Papp A→B,in vitro,20 ×10⁻⁶ cm/s
same,Caco2 transport compared with 79,Caco-2 cells,significantly improved transport over 79
same,melting point,,109 to 111 °C
CNc1nc(N)nc2c1sc(=O)n2[C@@H]1O[C@H](CO)[C@@H](O)[C@H]1O [Compound 18],melting point,,> 108 °C
"CN(C)c1nc(N)nc2c1sc(=O)n2[C@@H]1O[C@H](CO)[C@@H](O)[C@H]1O [Compound 20, 5-Amino-7-dimethylamino-3-β-D-ribofuranosylthiazolo[4,5-d]pyrimidin-2-one]",melting point,,> 112 °C
"Nc1nc(N)c2sc(=O)n([C@@H]3O[C@H](CO)[C@@H](O)[C@H]3O)c2n1 [Compound 15, 5,7-Diamino-3-β-D-ribofuranosylthiazolo[4,5-d]pyrimidin-2-one]",melting point,,> 155 °C (dec.)
"Nc1ncc2sc(=O)n([C@@H]3O[C@H](CO)[C@@H](O)[C@H]3O)c2n1 [Compound 79, 5-Amino-3-β-D-ribofuranosyl-3H-thiazolo-[4,5-d]pyrimidin-2-one]",Papp A→B,in vitro,10 ×10⁻⁶ cm/s
same,melting point,,220 °C (dec.)
"CC(C)[C@H](N)C(=O)OC[C@H]1O[C@@H](n2c(=O)sc3c(O)nc(N)nc32)[C@H](O)[C@@H]1O (as salt: hydrochloride) [Compound 3, 5-Amino-3-(5′-O-L-valinyl-β-D-ribofuranosyl)thiazolo[4,5-d]pyrimidine-2,7-dione Dihydrochloride]",melting point,,166 to 168 °C (dec.)
